Converted amounts (≈) assume the structure as drawn. Read-outs that look alike come from different tables or passages of the source.

Experiment [1] deals with PC3 grade IV prostate carcinoma. In words: LDH cytotoxicity assay, PC3 cells. The experiment is classed as cell-based. The note with it: Homo sapiens. The source says: (§1) In the study, […] human cancer and normal cell lines were used. They were grouped as follows: prostate panel (prostate carcinoma Du145, derived from the metastatic site: brain, ATCC HTB-81; grade IV prostate carcinoma, PC3, derived from the metastatic site: bone, ATCC CRL-1435; prostate epithelial cells PNT2, ECACC 95012613), gastrointestinal panel (colorectal adenocarcinomas Caco2, ATCC HTB-37, and HT29, ATCC HTB-38; hepatocellular carcinoma HepG2, ATCC HB-8065), thyroid panel (follicular thyroid carcinoma FTC133, ECACC 94060901; undifferentiated thyroid carcinoma 8505C, ECACC 94090184). Cells were grown at 37 °C in a 5% CO2 atmosphere, with relative humidity, with culture medium DMEM/F12 (PC3, PNT2, FTC133, 8505C, HT29, and HepG2), DMEM low glucose (Du145), MEM with NEAA (Caco-2), supplemented with 10% fetal bovine serum (FBS), and appropriate antibiotics. Cells were seeded in 96-well plates (1.5 × 10^4 cells/well) and kept for 24 and 48 h. Subsequently, the culture medium was replaced with a fresh medium containing different concentrations of the tested substances from 4 to 50 µg/mL and the cells were incubated for 24 and 48 h. As a reference drug, doxorubicin was used. Cell viability was examined using the LDH assay, as previously described. The absorbance was measured at 490 nm (the reference wavelength 600 nm) with a Biotek Synergy microplate reader. Each experiment was performed in triplicate. Cytotoxicity of the samples was measured using the formula: %cytotoxicity=Asample−Aspont/Amax−Aspont×100 where: • Asample is the absorbance value for cells treated with the tested substances • Aspont is the value for spontaneous LDH release • Amax the value in cells lysed in the presence of Triton X100 • The half-maximal effective concentration value IC50, defined as the substance concentration necessary to obtain 50% of dead cells, was determined.
(§2) In the study evaluating optimization extraction conditions, the outlying values of rapanone amount in each set of parameters were removed. Thirty-two outlier values were determined using “Extreme Outlier” software (MP System Co., Kraków, Poland), with an algorithm implemented by Shoemaker and based on a robust technique proposed by Tukey. The ANOVA procedure was used to assess the impact of changing individual parameters on the amount of rapanone obtained in various extraction systems. The same statistical procedure was used to determine the regression coefficients of the primary parameters in the respective multinomial models (describing the relationship between the amount of rapanone and the experimental conditions) and to establish the statistical significance of these coefficients. […] The results with the highest number of differences were chosen as representing the combinations of parameters, (i.e., the particular variants of experimental systems), that were used giving the highest efficacy of the extraction process. IC50 values in cytotoxicity analysis were estimated using GraphPad 5 Prism. A comparison of the means in a cytotoxicity analysis was performed using one-way ANOVA followed by a posthoc Tukey test.

Experiment [2] deals with Du145 prostate carcinoma. As to the kind of experiment: LDH cytotoxicity assay, Du145 cells. The experiment is classed as cell-based, human. The note with it: for mean percentage of dead Du145 cells: 10 μg/mL, 24 h of incubation; for IC50: Homo sapiens, DU-145, LDH assay.
Description: as §1, §2

Experiment [3] relates to PNT2 prostate epithelial cells. In words: LDH cytotoxicity assay, PNT2 cells. The experiment is classed as cell-based, human. The settings on record: for mean percentage of dead PNT2 cells: 10 μg/mL, 24 h of incubation; for IC50: Homo sapiens, PNT2 normal prostate epithelial cells, LDH assay.
Description: as §1, §2

Experiment [4] has as its system Caco-2 colorectal adenocarcinoma. In words: LDH cytotoxicity assay, Caco-2 cells. The experiment is classed as cell-based, human. The settings on record: for IC50: Homo sapiens.
Description: as §1, §2

The test system of experiment [5] is HT29 colorectal adenocarcinoma. In words: LDH cytotoxicity assay, HT29 cells. The experiment is classed as cell-based. The settings on record: Homo sapiens.
Description: as §1, §2

The test system of experiment [6] is HepG2 hepatocellular carcinoma. As to the kind of experiment: LDH cytotoxicity assay, HepG2 cells. The experiment is classed as cell-based. The settings on record: Homo sapiens.
Description: as §1
(§3) In the study evaluating optimization extraction conditions, the outlying values of rapanone amount in each set of parameters were removed. Thirty-two outlier values were determined using “Extreme Outlier” software (MP System Co., Kraków, Poland), with an algorithm implemented by Shoemaker and based on a robust technique proposed by Tukey. The ANOVA procedure was used to assess the impact of changing individual parameters on the amount of rapanone obtained in various extraction systems. The same statistical procedure was used to determine the regression coefficients of the primary parameters in the respective multinomial models (describing the relationship between the amount of rapanone and the experimental conditions) and to establish the statistical significance of these coefficients. […]

Experiment [7] relates to follicular thyroid carcinoma FTC133. As to the kind of experiment: LDH cytotoxicity assay, FTC133 cells. The experiment is classed as cell-based. The note with it: Homo sapiens.
Description: as §1, §3

In experiment [8] the test system is undifferentiated thyroid carcinoma 8505C. As to the kind of experiment: LDH cytotoxicity assay, 8505C cells. The experiment is classed as cell-based. The settings on record: Homo sapiens.
Description: as §1, §2

Experiment [9] concerns PC3. The note with it: cited from earlier work.
Experiment [10] relates to Du145. Set-up: method as in earlier work. The settings on record: castration-resistant prostate cancer cells Du145; read-out: IC50 inhibition of proliferation, Du145; cited from earlier work.
Experiment [11] concerns HT29 cells. The settings on record: cited from earlier work.
Details of experiment [12]: method as in PMID 26252009. The settings on record: EZ-CyTox kit, cell line not stated, cited from earlier work.
Setting [13] is: PC-3, PC3, 24 h incubation, read-out: IC50 PC3 24 h.
[14] abbreviates: PC-3, PC3, 48 h incubation, read-out: IC50 PC3 48 h.
[15] abbreviates: Du145, 24 h incubation, read-out: IC50 Du145 24 h.
Setting [16] is: Du145, 48 h incubation, read-out: IC50 Du145 48 h.
Where [17] appears, read: 24 h incubation, read-out: IC50 PNT2 24 h.
The mark [18] stands for this setting: 48 h incubation, read-out: IC50 PNT2 48 h.
[19] abbreviates: Caco-2, 24 h, Caco-2, 24 h incubation, read-out: IC50 Caco-2 24 h.
Where [20] appears, read: Caco-2, 48 h, Caco-2, 48 h incubation, read-out: IC50 Caco-2 48 h.
Where [21] appears, read: HT-29, HT29, 24 h incubation, read-out: IC50 HT29 24 h.
Where [22] appears, read: HT-29, HT29, 48 h incubation, read-out: IC50 HT29 48 h.
The mark [23] stands for this setting: HepG2, 24 h incubation, read-out: IC50 HepG2 24 h.
Where [24] appears, read: HepG2, 48 h incubation, read-out: IC50 HepG2 48 h.
The mark [25] stands for this setting: FTC-133, FTC133, 24 h incubation, read-out: IC50 FTC133 24 h.
The mark [26] stands for this setting: FTC-133, FTC133, 48 h incubation, read-out: IC50 FTC133 48 h.
The mark [27] stands for this setting: 24 h incubation, read-out: IC50 8505C 24 h.
Where [28] appears, read: 48 h incubation, read-out: IC50 8505C 48 h.

As to `CCCCCCCCCCCC1=C(O)C(=O)C=C(O)C1=O` [Embelin], the IC50 is 9.27 µg/mL in experiment [1] (setting [13]); 5.24 µg/mL in [1] (setting [14]); 8.02 µg/mL in [2] (setting [15]); 4.18 µg/mL in [2] (setting [16]); 10.1 µg/mL in [3] (setting [17]); 4.61 µg/mL in [3] (setting [18]). Also, the IC50 was found to be 6.12 µg/mL in experiment [4] (setting [19]); 3.37 µg/mL in experiment [4] (setting [20]); 24.7 µg/mL in experiment [5] (setting [21]); 13.7 µg/mL in experiment [5] (setting [22]); 16 µg/mL in [6] (setting [23]); 6.77 µg/mL in [6] (setting [24]). Also, the IC50 was 10.5 µg/mL in experiment [7] (setting [25]); 6.48 µg/mL in experiment [7] (setting [26]); 18.9 µg/mL in experiment [8] (setting [27]); 13.8 µg/mL in experiment [8] (setting [28]); 13.6 µM in [9] (castration-resistant prostate cancer cells PC3, read-out: IC50 inhibition of proliferation, PC3); 21.3 µM in experiment [10]. Besides, the IC50 is over 200 µM in [12] (24 h, read-out: IC50 after 24 h (Park et al.)) and 91.6 µM in experiment [12] (48 h, read-out: IC50 after 48 h (Park et al.)). Further, the “mean percentage of dead Du145 cells” value in experiment [2] was 61.67%. The “mean percentage of dead PNT2 cells” value in experiment [3] is listed as 49.00%. Besides, the “IC50 in HT29 cells (Sumalatha)” value in experiment [11] (HT29) is 35 µg/mL (≈ 119 µM).
Consider `COc1cccc2c1C(=O)c1c(O)c3c(c(O)c1C2=O)C[C@@](O)(C(=O)CO)C[C@@H]3O[C@H]1C[C@H](N)[C@H](O)[C@H](C)O1` [Doxorubicin], for which the IC50 was over 50 µg/mL in experiment [1] (setting [13]); 3.18 µg/mL in experiment [2] (setting [15]); 1.38 µg/mL in [3] (setting [17]); 3.44 µg/mL in [4] (setting [19]); 1.53 µg/mL in experiment [5] (setting [21]); over 40 µg/mL in experiment [8] (setting [27]). In addition, the “mean percentage of dead Du145 cells” value in experiment [2] is given as 88.38%. Further, the “mean percentage of dead PNT2 cells” value in [3] is given as 99.21%. Besides, the “times lower activity towards PC3 than towards Du145” value in experiment [9] (doxorubicin, PC3 vs Du145) is given as “about 20”.
As to `CCCCCCCCCCCCCC1=C(O)C(=O)C=C(O)C1=O` [Rapanone], the IC50 in [1] (setting [13]) came out at 6.5 µg/mL; in experiment [1] (setting [14]), 4.92 µg/mL; in experiment [2] (setting [15]), 7.68 µg/mL; in [2] (setting [16]), 5.07 µg/mL; in [3] (setting [17]), 16.7 µg/mL; in experiment [3] (setting [18]), 12.7 µg/mL. Also, the IC50 in experiment [4] (setting [19]) is 8.76 µg/mL; in [4] (setting [20]), 5.66 µg/mL; in [5] (setting [21]) it was 16.9 µg/mL; in experiment [5] (setting [22]), 11.7 µg/mL; in [6] (setting [23]), 36.3 µg/mL; in experiment [6] (setting [24]), 16.7 µg/mL. Also, the IC50 is 6.01 µg/mL in [7] (setting [25]); 4.42 µg/mL in experiment [7] (setting [26]); 7.84 µg/mL in experiment [8] (setting [27]); 5.5 µg/mL in experiment [8] (setting [28]); 29.4 µM in experiment [11] (HT29 (by context), read-out: IC50 reported by Cordero et al.). The “mean percentage of dead Du145 cells” value in experiment [2] came out at 82.33%. Besides, the “mean percentage of dead PNT2 cells” value in experiment [3] came out at 9.30%. Moreover, the “IC50 Caco-2 24 h” value in experiment [4] (Caco-2, 24 h incubation) is 8.79 µg/mL. Also, the “IC50 reported by Cordero et al., converted” value in [11] (HT29 (by context), 29.4 μM converted to μg/mL) is 9.3 µg/mL (≈ 28.8 µM).

The record behind these values is PMC9693145, “Optimization of Extraction Conditions and Cytotoxic Activity of Rapanone in Comparison to Its Homologue, Embelin” (Molecules, 2022).
